Each structure is given as a SMILES string. “Also recorded” adds a separate entry of the source.

The values below come from patent publication US20240350503A1, “COMPOUNDS FOR TREATMENT OF VIRAL INFECTIONS BY NEUROTROPIC VIRUS” (priority 2021, published 2024).

This assay has as its system SARS-CoV-2. The class given is cell-based, SARS-CoV-2 alpha variant.

In the case of `c1ccc(-c2ccc(CNc3nc(-c4ccccn4)nnc3-c3ccccc3)cc2)cc1` [ML228], the “SARS-CoV-2 replication (virus N2 RNA level)” value is given as “strongly reduced; also recorded: significantly decreased”.
